Tests used:
Vam7 = target: T1, Vam7 (Saccharomyces cerevisiae, UniProt P32912); test: bio-layer interferometry, biotinylated lipid on streptavidin probe; assay type: binding
T1 construct: GST-Vam7
T1 sequence (P32912 1-316): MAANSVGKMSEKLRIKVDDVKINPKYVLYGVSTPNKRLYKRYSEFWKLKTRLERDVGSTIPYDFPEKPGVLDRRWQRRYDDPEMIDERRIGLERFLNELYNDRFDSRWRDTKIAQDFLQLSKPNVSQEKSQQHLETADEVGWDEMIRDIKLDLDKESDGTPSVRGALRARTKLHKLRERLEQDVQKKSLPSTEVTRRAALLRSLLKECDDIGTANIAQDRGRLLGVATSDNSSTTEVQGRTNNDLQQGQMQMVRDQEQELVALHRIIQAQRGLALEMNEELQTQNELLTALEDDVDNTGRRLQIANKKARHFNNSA

Vam7^Y42A = target: T2, Vam7^Y42A (Saccharomyces cerevisiae, UniProt P32912, Y42A); test: as above; assay type: binding
T2 construct: GST-Vam7^Y42A
T2 sequence (P32912 whole entry Y42A): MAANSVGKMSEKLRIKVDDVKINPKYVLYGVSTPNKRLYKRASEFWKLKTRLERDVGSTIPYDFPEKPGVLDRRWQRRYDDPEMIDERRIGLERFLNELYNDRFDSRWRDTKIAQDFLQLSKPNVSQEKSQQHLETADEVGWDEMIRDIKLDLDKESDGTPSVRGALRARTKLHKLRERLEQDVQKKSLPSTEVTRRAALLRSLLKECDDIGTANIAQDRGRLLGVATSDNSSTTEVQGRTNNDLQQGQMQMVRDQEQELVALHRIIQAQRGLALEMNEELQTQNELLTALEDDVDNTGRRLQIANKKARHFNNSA

Substance | Kd (Vam7) [nM] | Kd (Vam7^Y42A) [nM]
PI(3,4,5)P3 | ~70 | ~210
PI3P | ~200 | –

Source: publication doi:10.1101/2025.08.01.668199, “Vacuolar Phosphatidylinositol 3,4,5-trisphosphate controls fusion through binding Vam7, and membrane microdomain assembly” (bioRxiv, 2025)
